Earlier results, collected in paper PMC9227781, “Inhibitors of O-Acetylserine Sulfhydrylase with a Cyclopropane-Carboxylic Acid Scaffold Are Effective Colistin Adjuvants in Gram Negative Bacteria” (Pharmaceuticals, 2022).

What was measured:
[1] = biological target: T1, StOASS-A (Salmonella typhimurium, UniProt P0A1E3); set-up: method as in PMID 26894308; details: read-out: KD toward isoform A from S. Typhimurium; cited from earlier work
T1 construct: His-tag (with TEV site) (cleaved yes); made in house; host or cells: E. coli Rosetta (DE3)

[2] = biological target: T2, StOASS-B (Salmonella typhimurium, UniProt P29848); set-up: method as in PMID 26894308; details: read-out: KD toward isoform B from S. Typhimurium; cited from earlier work
T2 construct: His-tag (with TEV site) (cleaved yes); made in house; host or cells: E. coli Rosetta (DE3)
T2 sequence (P29848 1-303): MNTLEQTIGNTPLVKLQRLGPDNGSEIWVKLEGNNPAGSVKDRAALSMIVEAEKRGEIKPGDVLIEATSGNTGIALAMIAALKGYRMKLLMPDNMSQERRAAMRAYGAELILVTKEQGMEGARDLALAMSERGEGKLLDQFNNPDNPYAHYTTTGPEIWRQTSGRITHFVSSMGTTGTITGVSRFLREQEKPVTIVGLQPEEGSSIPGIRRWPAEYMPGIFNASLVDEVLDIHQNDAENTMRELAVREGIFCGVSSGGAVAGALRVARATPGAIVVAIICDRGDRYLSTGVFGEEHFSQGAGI

[3] = system: all bacterial species considered in that study; set-up: method as in PMID 33513010; details: cited from earlier work

T1 sequence (P0A1E3 whole entry, canonical isoform): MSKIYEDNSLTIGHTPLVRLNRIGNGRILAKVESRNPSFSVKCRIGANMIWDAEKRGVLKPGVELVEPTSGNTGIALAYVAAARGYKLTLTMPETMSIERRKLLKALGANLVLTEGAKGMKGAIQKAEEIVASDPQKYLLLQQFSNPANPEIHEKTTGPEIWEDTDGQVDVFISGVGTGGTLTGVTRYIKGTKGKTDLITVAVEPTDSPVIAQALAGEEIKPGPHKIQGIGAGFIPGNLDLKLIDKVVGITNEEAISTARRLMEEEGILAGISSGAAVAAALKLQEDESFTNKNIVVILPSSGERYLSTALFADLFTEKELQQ

**Q.** With `Cc1ccc(C[C@@]2(C(=O)O)C[C@H]2c2ccccc2)cc1` [UPAR415] as the compound, how does the Kd [1] read?
**A.** 28 nM

**Q.** What about the Kd [2] of the same compound?
**A.** 490 nM

**Q.** What about the “effect as colistin adjuvant” value [3] of the same compound?
**A.** synergistic or additive effect
